Laboratory results from the NIST ThermoML archive (doi:10.1021/je800842z).
Numbers after ± are expanded uncertainties.

Tests used:
[1] = 293.15 K; 101.33 kPa; Liquid; Pycnometric method
[2] = refractive index (Na D-line) (dimensionless); settings: 293.15 K; 101.33 kPa; Liquid; Standard Abbe refractometry

| mass density [1] | refractive index [2] | Structure (SMILES) |
| --- | --- | --- |
| 900 ± 1 kg/m3 | 1.3588 ± 0.0004 | CCOC(C)=O [ethyl acetate] |
| 879 ± 1 kg/m3 | 1.5011 ± 0.0004 | c1ccccc1 [benzene] |

| Structure (SMILES) | mass density [1] | refractive index [2] |
| --- | --- | --- |
| Cc1ccccc1 [toluene] | 866 ± 1 kg/m3 | 1.4967 ± 0.0004 |
